Assay results taken from patent EP2769723A1, “Compounds for use in inhibiting HIV capsid assembly” (priority 2013, dated 2014).

How the values were obtained:
wild type NL4.3 HIV-1 = assay: Tissue culture infectivity test, TZM titration of supernatants from infected TZM cells; type: cell-based; conditions: Human immunodeficiency virus 1, TZM, read-out: tissue culture IC50 (µM)
Method: Hits selected in the YFP-screen were further evaluated in the tissue culture experiments with cells infected with the wild type NL4.3 HIV-1. The virus for infection was obtained from co-culture of MT4 cells. The MT4 cells co-culture was synchronized for one week and then used for the infection of fresh MT 4 cells. 48 hrs post-infection was the culture supernatant harvested, cleared by the filtration through […] filter and stored in -80 °C in 1 ml aliquots. Amount of virus was quantified by enzyme-linked immuno sorbent assay (ELISA) with antibodies against HIV-1 CA (3 ng of CA/ml) and blue cell assay (1x10^5 IU/ml), which gives 3 x 10^4 IU/ng of CA.
For compounds testing the TZM cells were seeded on 96-well plate in the density 5 x 10^3 cells per well. The culture media was aspirated approx. 16 hrs later and cells were infected by the wild type NLA.3 HIV-1 by addition of 50J..il of prepared virus stock diluted with 50 µl of complete DMEM. The compounds were added twice to ensure that there are not any preassembled viruses present at the time of their addition. Compounds were first added 8 hrs post-infection and then 24 hrs later. In both cases the old culture media were replaced by 100 µl of fresh complete DMEM prior to the compounds addition. Different compounds concentrations were tested, but the DMSO concentration never exceeded 1 % DMSO. As controls were used cells treated only with 1 % DMSO and cells treated with 0,1 µM Lopinavir (HIV-1 protease inhibitor). Supernatant was harvested 24 hrs after the second compound addition, i.e. 56 hrs post-infection. Harvested supernatants were immediately titrated on the fresh TZM cells in aim to perform the infectivity assay (TZM titration), or inactivated by addition of Triton X-100 to the final concentration 0.025 % for further ELISA analysis.
TZM titration was performed on the cells seeded day before on 96-well plate in the density 5 x 10^3 cells per well. The analysis was performed for each compound concentration at three different dilutions and in duplicates. The culture media was aspired and cells were lysed 48 hrs post-infection by addition of 100 µl of SteadyGlo luciferase substrate (Promega) diluted 1 : 1 by complete DMEM. The luminescence signal was measured on Luminoskan Ascent (Thermo Labsystems) after the transfer of 80 µl of lysate to the flat bottom white polystyrene assay plates (Costar).

TZM cells = assay: in vitro; type: cell-based; conditions: Table 4; non-cytotoxic when values higher than 80 % of 1 % DMSO treated cells
Method: Cytotoxicity of selected hits tested in the assay with NL4.3 infected cells was determined by MTT test. TZM cells were seeded on the previous day on 96-well plate in the density 5 x 10^3 cells per well. The tested compounds were added in different concentrations, but the DMSO concentration never exceeded 1 % DMSO. As controls were used cells treated only with 1 % DMSO (non-toxic concentration) and cells treated with 5 % DMSO (toxic concentration). 20 µl of the CellTiter 96 Aqueous One substrate (Promega) was added to the 100 µl of culture media 48 hrs after the compounds addition and the color development was quantified 4 hrs later by measuring the absorbance at 490 nm on Saphire reader. Compounds were consider non-cytotoxic (at given concentrations) when the measured values were higher than 80 % of the value of 1 % DMSO treated cells.

CA = target: T1, CA (Human immunodeficiency virus type 1 group M subtype B, UniProt P12493); assay: ALPHA screen (AlphaScreen): inhibition of CAI binding to CA; parameters: species or system HIV-1; conditions: CAI-biotin peptide / CA-GST; compounds screened at 0.5-100 µM; read-out: α screen IC50
T1 construct: a fusion protein of CA with glutathione-S-transferase (CA-GST)
Method: The AlphaScreen experiments are performed using Perkin Elmer Enspire plate reader in white 96-well ProxiPlates and PBS supplemented with 0.05% Tween20, 2mM DTT, 2% DMSO. First, Streptavidin-coated Donor beads are used to capture the CAI-biotin peptide. In the other solution, a fusion protein of CA with glutathione-S-transferase (CA-GST) is mixed with GSH Acceptor beads. Both mixtures were incubated and then mixed together. To test the ability of prepared organic compounds to inhibit the CAI binding to CA, they are screened at concentrations between 0.5-100 µM and IC50 values are calculated from the influenced signals.
Upon illumination by laser at 680 nm, Donor beads containing the photosensitizer phthalocyanine convert ambient oxygen to an excited form of singlet oxygen ^1O2. Singlet oxygen can within its half-life of ~ 4 µs diffuse approximately 200 nm in solution. If an Acceptor bead is within that proximity, which is mostly upon CA:CAI interaction, energy is transferred from the singlet oxygen to thioxene derivates within the Acceptor and signal at 520 - 620 nm is emitted.

| Structure (SMILES) | IC50 (wild type NL4.3 HIV-1) [µM] | toxicity LC50 (µM) (TZM cells) | IC50 (CA) [µM] |
| --- | --- | --- | --- |
| CC(=O)c1ccc(Nc2nc(-c3ccncc3)nc3ccccc23)cc1 [AMR-535] | < 5 | non-toxic | – |
| CCOC(=O)c1ccccc1Nc1nc(-c2ccncc2)nc2ccccc12 [AMR-540] | > 10 | non-toxic | – |
| CCOC(=O)c1cccc(Nc2nc(-c3ccncc3)nc3ccccc23)c1 [AMR-541] | < 5 | non-toxic | – |
| O=C(O)c1ccc(Nc2nc(-c3ccncc3)nc3ccccc23)cc1 [AMR-542] | > 10 | non-toxic | – |
| N#Cc1ccc(Nc2nc(-c3ccncc3)nc3ccccc23)cc1 [AMR-549] | > 10 | non-toxic | – |
| CS(=O)(=O)c1ccc(Nc2nc(-c3ccncc3)nc3ccccc23)cc1 [AMR-551] | > 10 | non-toxic | – |
| NC(=O)c1ccc(Nc2nc(-c3ccncc3)nc3ccccc23)cc1 [AMR-556] | > 10 | non-toxic | – |
| CNc1ccc(F)cc1Nc1nc(-c2ccncc2)nc2ccccc12 [AMR-558] | > 10 | non-toxic | – |
| CNc1ccc(F)cc1Nc1nc(-c2cccnc2)nc2ccccc12 [AMR-560] | ~12 | non-toxic | – |
| CC(O)c1ccc(Nc2nc(-c3ccncc3)nc3ccccc23)cc1 (centres unmarked) [AMR-566] | ~10 | non-toxic | – |
| CSc1ccc(Nc2nc(-c3ccncc3)nc3ccccc23)cc1 [AMR-570] | ~10 | non-toxic | – |
| C[S+]([O-])c1ccc(Nc2nc(-c3ccncc3)nc3ccccc23)cc1 (centres unmarked) [AMR-573] | > 10 | non-toxic | – |
| CCOC(=O)N1CCC(Nc2nc(-c3ccncc3)nc3ccccc23)CC1 [AMR-577] | > 10 | non-toxic | – |
| O=[N+]([O-])c1cc(Nc2nc(-c3cccnc3)nc3ccccc23)ccc1F [AMR.425] | – | non toxic | 7 |
| Cn1nnc2cc(Nc3cc(-c4cccnc4)nc4ccccc34)ccc21 [AMR.505] | – | – | 59.8 |
| CN(C)c1cccc(-c2nc(Nc3cc([N+](=O)[O-])ccc3F)c3ccccc3n2)c1 [AMR.508] | – | – | > 200 |
| CN(C)c1cccc(-c2nc(Nc3ccc4c(c3)nnn4C)c3ccccc3n2)c1 [AMR.509] | – | – | > 200 |
| CN(C)c1ccc(-c2nc(Nc3cc([N+](=O)[O-])ccc3F)c3ccccc3n2)cc1 [AMR.511] | – | – | > 200 |
| CN(C)c1ccc(-c2nc(Nc3ccc4c(c3)nnn4C)c3ccccc3n2)cc1 [AMR.512] | – | – | 30.8 |
| O=[N+]([O-])c1ccc(Nc2ccnc(-c3cccnc3)n2)c(F)c1 [KP-34] | > 25 | non-toxic | – |
| O=[N+]([O-])c1cc(Nc2ccnc(-c3cccnc3)n2)ccc1F [KP-43] | – | non-toxic | – |
| COc1cc2c(Nc3ccc([N+](=O)[O-])cc3F)nc(-c3cccnc3)nc2c(OC)c1OC [KP-66] | ~5 | non-toxic | – |
| O=[N+]([O-])c1ccc(Sc2nc(-c3cccnc3)nc3ccccc23)c(F)c1 [KP-76] | ~5 | non-toxic | – |

| Structure (SMILES) | IC50 (wild type NL4.3 HIV-1) [µM] | toxicity LC50 (µM) (TZM cells) | IC50 (CA) [µM] |
| --- | --- | --- | --- |
| O=[N+]([O-])c1cnccc1Nc1nc(-c2cccnc2)nc2ccccc12 [KP-92] | ~8 | non-toxic | – |
| O=[N+]([O-])c1ccc(Nc2cc(-c3cccnc3)nc3ccccc23)c(F)c1 [KP-94] | ~5 | – | – |
| Fc1cc(Nc2nc(-c3cccnc3)nc3ccccc23)c(F)c(F)c1F [KP-98] | ~15 | non-toxic | – |
| Fc1cc(F)c(Nc2nc(-c3cccnc3)nc3ccccc23)cc1Br [KP-100] | – | non-toxic | – |
| Fc1c(F)c(F)c(Nc2nc(-c3cccnc3)nc3ccccc23)c(F)c1F [KP-107] | ~7 | non-toxic | – |
| c1cncc(-c2nc(Nc3ccncn3)c3ccccc3n2)c1 [KP-111] | ~18 | non-toxic | – |
| CC(=O)OC[C@H]1O[C@@H](Sc2nc(-c3cccnc3)nc3ccccc23)[C@H](OC(C)=O)[C@@H](OC(C)=O)[C@@H]1OC(C)=O [KP-119] | > 25 | non-toxic | – |
| C=Cc1ccc2nc(-c3cccnc3)nc(Nc3cc(F)c(F)c(F)c3)c2c1 [KP-130] | > 25 | non-toxic | – |
| CCOP(=O)(OCC)c1cc([N+](=O)[O-])ccc1Nc1nc(-c2cccnc2)nc2ccccc12 [KP-139] | > 25 | non-toxic | – |
| Fc1cc(Nc2ncnc3ccccc23)cc(F)c1F [KP-152] | ~17 | non-toxic | – |
| Fc1cc(Nc2nc(-c3ccccc3)nc3ccccc23)cc(F)c1F [KP-153] | 10 to 15 | non-toxic | – |
| Fc1cc(Nc2nc(-c3cncc(Br)c3)nc3ccccc23)cc(F)c1F [KP-158 (old)] | 0.5 to 1 | non-toxic | – |
| Fc1cc(Nc2nc(-c3ccc(I)cc3)nc3ccccc23)cc(F)c1F [KP-161] | ~10 | non-toxic | – |
| Fc1cccc(Nc2nc(-c3cccnc3)nc3ccccc23)c1 [KP-165] | > 10 | non-toxic | – |
| Fc1cc(Nc2nc(Cl)nc3ccccc23)cc(F)c1F [KP-187] | > 10 | non-toxic | – |
| c1cncc(-c2nc(N3CCOCC3)c3ccccc3n2)c1 [KP-190] | > 10 | non-toxic | – |
| CCOC(=O)c1sc2nc(-c3cccnc3)nc(Nc3cc(F)c(F)c(F)c3)c2c1C [KP-199] | > 10 | non-toxic | – |
| Fc1ccc(Nc2nc(-c3cccnc3)nc3ccccc23)cc1Cl [KP-207] | > 10 | non-toxic | – |
| c1cncc(-c2nc(NC3CC3)c3ccccc3n2)c1 [KP-216] | > 10 | non-toxic | – |
| Cc1c(CO)sc2nc(-c3cccnc3)nc(Nc3cc(F)c(F)c(F)c3)c12 [KP-233] | > 10 | non-toxic | – |
| Oc1ccc2nc(-c3cccnc3)nc(Nc3cc(F)c(F)c(F)c3)c2c1 [OSR-217] | – | non-toxic | – |
| Oc1ccc2nc(-c3cccnc3)nc(O)c2c1 [OSR-243] | – | non-toxic | – |
